Biological target: T1, CD36 (Homo sapiens, UniProt P16671)
T1 construct: commercial biotinylated His, Avitag human CD36, captured on streptavidin CAP chip
Assay: SPR (Biacore […]), steady-state […] fit
Format: binding

T1 sequence (P16671 30-439 limits assumed): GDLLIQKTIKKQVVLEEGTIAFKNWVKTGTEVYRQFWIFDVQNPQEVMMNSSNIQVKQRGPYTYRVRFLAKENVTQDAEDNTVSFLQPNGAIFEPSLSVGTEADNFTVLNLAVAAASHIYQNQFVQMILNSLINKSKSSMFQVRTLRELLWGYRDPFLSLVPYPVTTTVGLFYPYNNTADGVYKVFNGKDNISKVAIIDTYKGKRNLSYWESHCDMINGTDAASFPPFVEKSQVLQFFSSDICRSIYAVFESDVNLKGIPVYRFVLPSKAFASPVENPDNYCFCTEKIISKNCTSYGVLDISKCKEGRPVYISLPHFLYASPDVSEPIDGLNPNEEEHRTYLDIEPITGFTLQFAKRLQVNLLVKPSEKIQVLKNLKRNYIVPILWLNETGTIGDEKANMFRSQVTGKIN

Kd: ~5 µM
Structure (SMILES): COc1cc(/C=C/C(=O)c2ccc(N(C)C)cc2)ccc1OCC(=O)O [SMS121, (E)-2-(4-(3-(4-(dimethylamino)phenyl)-3-oxoprop-1-en-1-yl)-2-methoxyphenoxy) acetic acid]
